Results reported in patent EP0319986B1, “Anti-plasmin depressant” (NIPPON SHINYAKU COMPANY, LIMITED, priority 1987, dated 1989).

Key:
fibrin clot = assay: Lysis by urokinase of 125I-fibrin clots formed from plasma of treated Beagle dogs; type: in vivo; conditions: plasma 4 Days After Administration of 30 mg/kg once a day, 37°C, 12 hours, n=3
Procedure: A test sample (Compound No. 2) was consecutively administered to Beagle dogs in a dose of 30 mg/kg once a day. Plasma was isolated prior to and 4 days after the administration. The α2-PI activity in plasma was measured and at the same time, fibrin clot was formed in vitro using the plasma. When urokinase as a thrombolytic agent was acted on the fibrin clot, a degree of lysis was compared between plasma prior to the administration and plasma 4 days after the administration.
To 300 µl of the isolated plasma, 40 µl of ^125I-fibrinogen (0.1 mci/ml) was added and 50 µl each of the mixture was dispensed in a test tube. 5 µl each of a solution mixture of 25 U/ml thrombin and 0.5 M calcium chloride was added to each test tube, which was incubated at 37°C for 30 minutes to prepare fibrin clots. Solutions of 15 and 30 U/ml of urokinase in 2% albumin solution and the resulting solution ware charged in each test tube by 1 ml each.
After incubating at 37°C for 12 hours, 25 µl of the supernatant was collected in an RAI tube and ^125I-fibrin decomposition products isolated in the supernatant were measured with a γ-counter. The sample number was 3 in each group.

[1] = test system: urokinase type plasminogen activator; assay: Fibrin autography of CPAE culture solution after SDS-polyacrylamide gel electrophoresis; type: cell-based, calf; conditions: culture solution of CPAE cells added with compound; lysis at the position of molecular weight of urokinase type plasminogen activator
From the text: It has been clarified that the compounds used according to the present invention are capable of inducing fibrinolytic activity in CPAE cells. In order to verify by what substance in addition to the α2-PI lowering activity, this fibrinolytic activity is induced, analysis was made on the culture solution added with Compound No. 2 out of the compounds used according to the present invention, by means of fibrin autography.
By SDS-polyacrylamide gel using 10% gel, this culture solution and t-PA (tissue plasminogen activator) and urokinase were subjected to electrophoresis. After the electrophoresis, the gel was treated with 2.5% Triton X-100, which was inoculated on agar plate added with fibrinogen, thrombin and plasminogen. A place of fibrin which caused lysis was confirmed in an incubator of 37°C in 5% CO2.

in vivo = conditions: mouse
Procedure: Four (4) ddY strain male mice of 6 week age were used for each group of the test sample.
In intravenous administration, each sample was dissolved in 0.9% physiological saline and the solution was administered through the tail vein. In intraperitoneal administration, each sample was suspended in 0.5% CMC-physiological saline and 0.1 ml of the suspension per […] of mouse body weight was intraperitoneally administered. In oral administration, each sample was suspended in 0.5% CMC-physiological saline and 0.2 ml of the suspension per […] administered.
Observation was made immediately after the administration. After observation for 1 week after the administration, the mice was sacrificed with chloroform and subjected to autopsy.

α2-PI = α2-PI activity in plasma of Beagle dogs after consecutive intravenous administration (S-2251); type: in vivo; conditions: 30 mg/kg intravenous, consecutive 7 days, activity prior to administration = 100%, n=3
Procedure: Three (3) male Beagle dogs were used for the control group and the administered group, respectively, as animals to be administered.
A test sample (Compound No. 2) was dissolved in a concentration of […] 0.1 ml, using 0.1 M phosphage buffer (pH 7.2). After dissolution, the solution was sterilized by filtration through a sterile filter (pore size, 0.2 µm) and then 0.3 ml of the solution was administered per 1 kg of body weight (30 mg/kg). The administration was made through the right front limb vein for consecutive 7 days. Collected blood was mixed with 3.8% sodium citrate in a ratio of 1 : 9 by volume. By centrifugation at 3000 rpm for 15 minutes, plasma was isolated.
The α2-PI activity was measured as an inhibition activity against decomposition of plasmin with the synthetic chromogenic substrate S-2251. The results of measurement are shown as change in inhibition activity after administration based on 100% of the plasmin inhibition activity prior to administration of the test sample (Table 2). The sample number in each group was 3 samples.
The α2-PI activity was obviously depressed by consecutive administration of the test compound in a dose of 30 mg/kg.

[2] = test system: CPAE (calf pulmonary artery endothelia); assay: Thrombolytic test in vitro: CPAE culture supernatant on fibrin plate, lysis circle; type: cell-based; conditions: 5 µl of 0.2 mg/ml compound solution per well of CPAE cells, 72 hours; 5 µl supernatant on fibrin plate with plasminogen, 4 hours; 4 mm or more = thrombolytic ability induced
Procedure: Thrombolytic activity-inducing ability in the established vascular endothelial cell culture system was examined using CPAE (calf pulmonary artery endothelia).
[…] cells were purchased from Dainippon Pharmaceutical Co., Ltd., Department of Laboratory Products. CPAE cells were subcultured in 10% FCS-Eagle MEM medium charged in a culture flask of 25 cm^2. From the cell suspension fractionated upon subculture, 0.1 ml was transferred into a test tube with a sterilized pipette. Then, the cell suspension was diluted to 10 fold with 0.9 ml of Trypan Blue solution and a cell count was counted with a cell counter. After diluting with 10% FCS-Eagle MEM medium so as to have a cell count of 2 x 10^5 cells/ml, 100 µl each/well, namely, 2 x 10^4 cells/well, of the dilution was dispensed in a 96 well microtiter plate (manufactured by Corning) with a micropipette. The plate was incubated at 37°C in 5% CO2.
The compound used according to the present invention was dissolved in medium in 0.2 mg/ml; the compound that was insoluble in the medium was dissolved in less than 1% of DMSO and the resulting solution was aseptically filtered through a filter; 5 µl of the solution was added to the well with a sterilized micropipette 24 hours after onset of the incubation. After culturing at 37°C for 72 hours in 5% CO2, the collected culture supernatant was provided for measurement.
The measurement was performed as follows. Plasminogen, 5 µl, was charged in a well of fibrin plate (manufactured by Kitazato institute), which was allowed to stand until diffusion was completed. After diffusion, 5 µl of the supernatant was charged and then put in a carbon dioxide gas incubator of 37°C. Four hours after, evaluation was made by formation of a transparent lysis circle by fibrinolysis.
In the case of forming a circle of 4 mm or more due to fibrinolysis, it was judged that thrombolytic ability of CPAE cells was induced.
After the fibrinolytic activity was checked over, the well was fixed with 2.5% of glutaraldehyde in a final concentration. Then, the solution was discarded and the system was washed with PBS. After washing, moisture was removed. After staining with 100 µl of 0.1% crystal violet and allowing stand for 2 to 3 minutes, the system was washed with running water. After an excess of the staining solution was washed out, moisture was removed and the dye bound to the cells was eluted by 100 µl of methanol. Using multiscanning (Titertech), measurements were performed at a wavelength of 580 nm in accordance with the ABS method and the matrix method to confirm that the cells were not injured.

Structure (SMILES): CN1C[C@H](O)[C@@H](O)[C@H](O)[C@H]1CO [Compound No. 2, N-methylmoranoline]
- Rate of Lysis of Fibrin Clot (%) (fibrin clot; Urokinase Activity 0 U): 21.5%
- Rate of Lysis of Fibrin Clot (%) (fibrin clot; Urokinase Activity 15 U): 63.8%
- Rate of Lysis of Fibrin Clot (%) (fibrin clot; Urokinase Activity 30 U): 93.7%
- Induction of urokinase type plasminogen activator in CPAE (fibrin autography) [1]: strongly induced production of urokinase type plasminogen activator
- LD50 at 168 h (in vivo; ip): 10000 mg/kg
- LD50 at 168 h (in vivo; iv): 5090 mg/kg
- LD50 at 168 h (in vivo; po): 10000 mg/kg
- α2-PI activity (%) (α2-PI; Day 1): 95%
- α2-PI activity (%) (α2-PI; Day 2): 83%
- α2-PI activity (%) (α2-PI; Day 3): 84%
- α2-PI activity (%) (α2-PI; Day 4): 76%
- α2-PI activity (%) (α2-PI; Day 5): 75%
- α2-PI activity (%) (α2-PI; Day 6): 86%
- α2-PI activity (%) (α2-PI; Day 7): 89%
- Diameter (mm) of the circle due to fibrinolysis [2]: 7.9 mm
